In US20060009438A2, “MODIFIED, HYDROXY-SUBSTITUTED AROMATIC STRUCTURES HAVING CYTOPROTECTIVE ACTIVITY” (Washington University, priority 2000, published 2006):
Like-named read-outs stand apart in the source and are kept apart here.

Assays:
[1] = test system: cortical neurons; experiment: NMDA-induced neuronal cell death in mixed cortical neuron/glial cultures (Trypan blue counting); assay type: cell-based, mouse
Protocol: Glial cell cultures: Glial cell cultures were prepared from P1 mice. Briefly, cortex from P1 mice were dissected and digested with 0.025% trypsin for 30-40 min. After trituration, the cells were plated on poly-D-lysine/laminin coated glass-bottom dishes at a density of approximately 5 x 10^6 cells per dish. Cells were grown for 7-10 days in Eagle's minimal essential medium supplemented with 10% fetal bovine serum, 10% horse serum, 10 ng/ml epidermal growth factor, 2 mM glutamine and 20 mM glucose. Cultures were kept at 37°C in a humidified CO2 atmosphere until they reached confluence. Cultures were then used to support neurons (see below).
Cortical neuronal cultures: Cortical neurons were prepared from E15-16 mouse embryos. Dissociated cortical cells (at a density of 5x 10^6 cells per dish) were plated on a layer of confluent glial cells (7-10 days in vitro), into Eagle's minimal essential medium supplemented with 5% fetal bovine serum, 5% horse serum, 2 mM glutamine, and 21 mM glucose. Cultures were kept at 37°C in a humidified 5% CO2 atmosphere. After 3-5 days in vitro, non-neuronal cell division was halted by exposure to 10^-5 M cytosine arabinoside for 2 days, and cultures were shifted to a growth medium identical to the plating medium but lacking […]. Cultures 9-14 days in vitro were used for the experiments.
Neuronal cell death: Mixed neuron/glial cultures were exposure to NMDA (30 µM) for 24 hours in medium stock (MS) (minimal essential medium with 15.8 mM NaHCO3 and 20 mM glucose, pH 7.4) at 37°C. Cell death was assessed […] by counting cells that stained with Trypan blue (0.4% for 10 minutes at 37°C). Stained neurons were counted from three random fields per dish. For the experiments to test the neuroprotective effect of the 17-β-estradiol and the adamantyl-modified analog thereof, cultures were incubated with the drugs for various time periods prior to when NMDA was added to the medium. Results

[2] = test system: HT-22 cells (immortalized hippocampal neurons); experiment: HT-22 Cell Neuroprotection Assay (glutamate insult, calcein AM viability); assay type: cell-based, murine; settings: ~16 h
Protocol: HT-22 cells (immortalized hippocampal neurons of murine origin) were maintained in DMEM media (Life Technologies, Inc., Gaitherburg, MD) supplemented with 10% charcoal-stripped FBS (HyClone Laboratories, Inc., Logan, UT) and 20 µg/mL gentamycin, according to standard culture conditions.
Cells were plated at a density of 5,000 cells/well in clear-bottomed Nunc 96-well plates (Fisher Scientific, Orlando, FL) and allowed to incubate overnight. Steroids dissolved in DMSO were added at concentrations ranging from 0.01-10 µM and were co-administered with glutamate (10 mM or 20 mM). DMSO was used at concentrations of 0.1% vol/vol as a vehicle control and had no discernible effect on cell viability. After ~16 h of glutamate exposure, cells were rinsed with PBS, pH 7.4, and viability was assessed by the addition of 25 µM calcein AM (Molecular Probes, Inc., Eugene, OR) in PBS for 15 min at room temperature. Fluorescence was determined (excitation 485, emission 530) using a fluorescence FL600 microplate reader (Biotek, Winooski, VT). Cells that were lysed by addition of methanol were used for blank readings. All data were normalized to % cell death, as calculated by (control value - insult value)/control value x 100.

[3] = 10 mM glutamate co-administered, read-out: Sterioid concentration needed to protect 50% of neurons killed by 10 mM Glutamate ED50
[4] = 20 mM glutamate co-administered, read-out: Sterioid concentration needed to protect 50% of neurons killed by 20 mM Glutamate ED50

SMILES | EC50 [2, 3] [nM] | EC50 [2, 4] [nM] | also measured
C[C@]12CC[C@@H]3c4cc(C56CC7CC(CC(C7)C5)C6)c(O)cc4CC[C@H]3[C@@H]1CC[C@@H]2O [ZYC-5, (17 β)-2-(1-Adamantyl)-estra-1,3,5(10)-triene-3,17-diol] |  |  | protective effect against NMDA-induced neuronal death ([1]; 100 nM dosage, 30 µM NMDA for 24 hours (Figure 5)): 10%; protection from neuronal death due to NMDA exposure ([1]; 1 µM drug, pre-incubation, 30 µM NMDA for 24 hours (Figure 5)): about half; effectiveness relative to 17-β-estradiol ([1]; 1 µM versus 10 µM 17-β-estradiol (one-tenth the dosage)): more than three times more effective; neuronal survival versus pre-incubation time ([1]; 1 µM, 1-12 hours pre-incubation prior to NMDA exposure (Figure 6)): no significant difference; neuronal protection versus pre-incubation time ([1]; 1 µM, 24 hours pre-incubation prior to NMDA exposure (Figure 6)): best protection results
C[C@]12CC[C@@H]3c4ccc(O)cc4CC[C@H]3[C@@H]1CC[C@@H]2O [17-β Estradiol, 17-β-estradiol] | 2210 | 3010 | reduction of neuronal loss due to NMDA exposure ([1]; 10 µM drug, pre-incubation, 30 µM NMDA for 24 hours (Figure 5)): about 15%
Cc1c(O)c(C23CC4CC(CC(C4)C2)C3)cc2c1CC[C@@H]1[C@@H]2CC[C@]2(C)C(=O)CC[C@@H]12 [ZYC-26, 2-(1-admantanyl)-3-hydroxy-4-methylestra-1,3,5(10)-trien-17-one] |  |  | melting point: 262 to 263 °C
CC12CCC3c4cc(C56CC7CC(CC(C7)C5)C6)c(O)cc4CCC3C1CCC2O (stereo not drawn) [ZYC-33, Ent-(17β)-2-(1-Adamantyl)estra-1,3,5(10)-triene-3,17-diol] | 65 | 19 | 
CC(C)(C)c1cc2c(cc1O)CCC1C2CCC2(C)C(O)CCC12 (stereo not drawn) [ZYC-34, Ent-(17β)-2-(1,1-dimethylethyl)estra-1,3,5(10)-triene-3,17-diol] | 240 | 260 | 
C[C@]12CC[C@@H]3c4ccc(O)cc4CC[C@H]3[C@@H]1CC[C@H]2O [17 α-Estradiol, 17α-estradiol] | 3100 | 16100 | 
Cc1c(O)c(C(C)(C)C)cc2c1CC[C@@H]1[C@@H]2CC[C@]2(C)C(=O)CC[C@@H]12 [ZYC-25, 2-(1,1-Dimethylethyl)-3-hydroxy-4-methylestra-1,3,5(10)-trien-17-one] |  |  | melting point: 190 to 192 °C
C[C@@]12CC[C@H]3c4ccc(O)cc4CC[C@@H]3[C@H]1CC[C@H]2O (single isomer, unassigned; ent-17) [Ent-(17 β)-Estradiol, ent-17β-estradiol] | 1070 | 1270 | 
